Test results reported in BindingDB's records for patent US12570614 (Glaxosmith Kline, 2026).

Biological target: Tyrosine-protein kinase JAK2 (Homo sapiens, UniProt O60674)
Experiment: Enzyme Screening Assay
Procedure: Alphascreen phosphotyrosine acceptor beads followed by streptavidin donor beads at a concentration of 1/100 in stop buffer were added to each well under subdued light and incubated for 2-3 hours. The Alphascreen plates were read on a Packard Fusion Alpha instrument

Chain of Tyrosine-protein kinase JAK2 (O60674 whole entry): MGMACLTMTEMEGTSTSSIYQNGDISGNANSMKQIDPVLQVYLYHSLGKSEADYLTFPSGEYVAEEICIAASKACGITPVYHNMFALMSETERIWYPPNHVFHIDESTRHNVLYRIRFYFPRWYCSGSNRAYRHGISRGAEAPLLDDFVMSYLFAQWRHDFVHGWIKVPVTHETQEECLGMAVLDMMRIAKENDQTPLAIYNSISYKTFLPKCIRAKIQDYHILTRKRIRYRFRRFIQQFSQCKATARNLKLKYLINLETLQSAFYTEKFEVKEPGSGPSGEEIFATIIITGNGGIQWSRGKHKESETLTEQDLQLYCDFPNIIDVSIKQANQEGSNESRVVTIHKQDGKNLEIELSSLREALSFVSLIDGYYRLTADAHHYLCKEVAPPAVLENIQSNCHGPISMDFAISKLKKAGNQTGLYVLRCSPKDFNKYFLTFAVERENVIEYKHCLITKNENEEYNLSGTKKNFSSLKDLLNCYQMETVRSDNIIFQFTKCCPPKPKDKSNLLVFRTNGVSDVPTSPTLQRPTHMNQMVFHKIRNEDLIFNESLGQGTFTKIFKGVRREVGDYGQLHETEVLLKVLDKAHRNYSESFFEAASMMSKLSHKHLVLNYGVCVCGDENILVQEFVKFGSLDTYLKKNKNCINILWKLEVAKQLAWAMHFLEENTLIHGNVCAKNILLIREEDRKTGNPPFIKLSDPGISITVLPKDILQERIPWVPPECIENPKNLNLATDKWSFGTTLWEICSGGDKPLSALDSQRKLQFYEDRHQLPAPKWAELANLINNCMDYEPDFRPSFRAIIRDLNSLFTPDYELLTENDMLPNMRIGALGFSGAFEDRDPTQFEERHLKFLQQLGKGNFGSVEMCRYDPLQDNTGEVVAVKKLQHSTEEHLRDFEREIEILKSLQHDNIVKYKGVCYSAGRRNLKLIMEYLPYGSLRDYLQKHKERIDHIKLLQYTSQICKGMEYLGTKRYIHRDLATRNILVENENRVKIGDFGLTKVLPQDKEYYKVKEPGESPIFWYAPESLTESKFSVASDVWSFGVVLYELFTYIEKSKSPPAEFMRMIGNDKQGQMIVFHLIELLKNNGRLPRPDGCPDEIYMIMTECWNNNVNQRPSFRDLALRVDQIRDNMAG

IC50: < 1 µM
SMILES: CCN1CCC(OC2CCC(Nc3nccc(-c4ccc(C(=O)NCC#N)cc4)n3)CC2)CC1 (stereo unspecified) [US12570614, Compound 80]
